From the NIST ThermoML archive (doi:10.1016/j.jct.2018.11.004)

Assay: molar heat capacity at saturation pressure
Conditions: Small (less than 1 g) adiabatic calorimetry

CC(C)[C@@H]1CC[C@@H](C)C[C@H]1O [L-menthol]
Conditions | molar heat capacity [J/K/mol]
5.02 K, Crystal 1 | 0.8545
5.31 K, Crystal 1 | 1.027
5.63 K, Crystal 1 | 1.231
5.95 K, Crystal 1 | 1.445
6.26 K, Crystal 1 | 1.675
6.62 K, Crystal 1 | 1.937
7 K, Crystal 1 | 2.276
7.37 K, Crystal 1 | 2.577
7.74 K, Crystal 1 | 2.937
8.14 K, Crystal 1 | 3.382
8.58 K, Crystal 1 | 3.847
9.03 K, Crystal 1 | 4.373
9.49 K, Crystal 1 | 4.87
9.99 K, Crystal 1 | 5.512
10.51 K, Crystal 1 | 6.205
11.04 K, Crystal 1 | 6.889
11.61 K, Crystal 1 | 7.681
12.2 K, Crystal 1 | 8.523
12.83 K, Crystal 1 | 9.473
13.48 K, Crystal 1 | 10.42
14.15 K, Crystal 1 | 11.42
14.89 K, Crystal 1 | 12.53
15.66 K, Crystal 1 | 13.66
16.43 K, Crystal 1 | 14.93
17.26 K, Crystal 1 | 16.13
18.12 K, Crystal 1 | 17.43
19.04 K, Crystal 1 | 18.89
20 K, Crystal 1 | 20.23
21.02 K, Crystal 1 | 21.71
22.08 K, Crystal 1 | 23.27
23.2 K, Crystal 1 | 24.92
24.41 K, Crystal 1 | 26.58
25.66 K, Crystal 1 | 28.24
26.93 K, Crystal 1 | 29.92
28.27 K, Crystal 1 | 31.55
29.67 K, Crystal 1 | 33.28
31.12 K, Crystal 1 | 34.98
32.66 K, Crystal 1 | 36.66
34.28 K, Crystal 1 | 38.41
36 K, Crystal 1 | 40.06
37.89 K, Crystal 1 | 42.03
39.9 K, Crystal 1 | 43.93
42.02 K, Crystal 1 | 45.96
44.24 K, Crystal 1 | 48.03
46.54 K, Crystal 1 | 50.11
48.92 K, Crystal 1 | 52.21
51.35 K, Crystal 1 | 54.32
53.83 K, Crystal 1 | 56.47
56.32 K, Crystal 1 | 58.63
58.78 K, Crystal 1 | 60.81
61.29 K, Crystal 1 | 62.85
64.03 K, Crystal 1 | 65.18
66.85 K, Crystal 1 | 67.74
69.53 K, Crystal 1 | 70.14
72.08 K, Crystal 1 | 72.41
74.6 K, Crystal 1 | 74.48
77.11 K, Crystal 1 | 76.77
79.66 K, Crystal 1 | 78.77
79.78 K, Crystal 1 | 79.07
81.5 K, Crystal 1 | 80.47
82.26 K, Crystal 1 | 80.88
83.22 K, Crystal 1 | 81.89
84.79 K, Crystal 1 | 83.06
84.94 K, Crystal 1 | 83.28
86.67 K, Crystal 1 | 84.77
87.34 K, Crystal 1 | 85.27
88.39 K, Crystal 1 | 86.22
89.9 K, Crystal 1 | 87.37
90.12 K, Crystal 1 | 87.73
91.85 K, Crystal 1 | 89.21
92.42 K, Crystal 1 | 89.76
93.59 K, Crystal 1 | 90.65
94.94 K, Crystal 1 | 91.69
95.32 K, Crystal 1 | 92.09
97.06 K, Crystal 1 | 93.51
97.47 K, Crystal 1 | 93.81
98.8 K, Crystal 1 | 95.01
100.02 K, Crystal 1 | 95.95
100.55 K, Crystal 1 | 96.44
102.3 K, Crystal 1 | 97.81
102.58 K, Crystal 1 | 98.22
104.04 K, Crystal 1 | 99.24
105.18 K, Crystal 1 | 100.4
105.8 K, Crystal 1 | 100.7
107.55 K, Crystal 1 | 102
107.78 K, Crystal 1 | 102.4
109.31 K, Crystal 1 | 103.5
111.06 K, Crystal 1 | 104.9
112.82 K, Crystal 1 | 106.2
114.58 K, Crystal 1 | 107.7
116.34 K, Crystal 1 | 109
118.11 K, Crystal 1 | 110.4
119.87 K, Crystal 1 | 111.7
121.64 K, Crystal 1 | 113.1
123.41 K, Crystal 1 | 114.4
125.18 K, Crystal 1 | 115.8
126.95 K, Crystal 1 | 117.2
128.73 K, Crystal 1 | 118.4
130.5 K, Crystal 1 | 119.8
132.28 K, Crystal 1 | 121.1
134.07 K, Crystal 1 | 122.4
135.85 K, Crystal 1 | 123.7
137.63 K, Crystal 1 | 125.1
139.41 K, Crystal 1 | 126.4
141.2 K, Crystal 1 | 127.7
142.99 K, Crystal 1 | 128.9
144.77 K, Crystal 1 | 130.2
146.56 K, Crystal 1 | 131.5
148.36 K, Crystal 1 | 132.8
150.15 K, Crystal 1 | 134.1
151.94 K, Crystal 1 | 135.3
153.73 K, Crystal 1 | 136.6
155.53 K, Crystal 1 | 137.9
157.32 K, Crystal 1 | 139.1
159.12 K, Crystal 1 | 140.4
160.91 K, Crystal 1 | 141.7
162.72 K, Crystal 1 | 143
164.52 K, Crystal 1 | 144.3
166.32 K, Crystal 1 | 145.5
168.12 K, Crystal 1 | 146.8
169.92 K, Crystal 1 | 148
171.73 K, Crystal 1 | 149.2
173.53 K, Crystal 1 | 150.5
175.33 K, Crystal 1 | 151.8
177.14 K, Crystal 1 | 153.1
178.95 K, Crystal 1 | 154.4
180.76 K, Crystal 1 | 155.6
182.56 K, Crystal 1 | 156.9
184.37 K, Crystal 1 | 158.2
186.18 K, Crystal 1 | 159.4
188 K, Crystal 1 | 160.7
189.81 K, Crystal 1 | 162.1
191.62 K, Crystal 1 | 163.3
193.43 K, Crystal 1 | 164.6
195.25 K, Crystal 1 | 165.9
197.06 K, Crystal 1 | 167.2
198.87 K, Crystal 1 | 168.5
200.69 K, Crystal 1 | 169.8
202.5 K, Crystal 1 | 171.1
204.32 K, Crystal 1 | 172.4
206.14 K, Crystal 1 | 173.7
207.95 K, Crystal 1 | 175
209.77 K, Crystal 1 | 176.4
211.6 K, Crystal 1 | 177.6
213.42 K, Crystal 1 | 178.9
215.24 K, Crystal 1 | 180.2
216.36 K, Crystal 1 | 180.9
217.07 K, Crystal 1 | 181.5
218.32 K, Crystal 1 | 182.5
218.89 K, Crystal 1 | 182.9
220.14 K, Crystal 1 | 183.7
220.72 K, Crystal 1 | 184.2
221.96 K, Crystal 1 | 185.1
222.55 K, Crystal 1 | 185.4
223.78 K, Crystal 1 | 186.5
225.6 K, Crystal 1 | 187.8
227.43 K, Crystal 1 | 189.1
229.25 K, Crystal 1 | 190.5
231.07 K, Crystal 1 | 191.9
232.89 K, Crystal 1 | 193.3
234.71 K, Crystal 1 | 194.7
236.53 K, Crystal 1 | 196.1
238.35 K, Crystal 1 | 197.4
240.18 K, Crystal 1 | 198.8
242 K, Crystal 1 | 200.2
243.83 K, Crystal 1 | 201.7
245.65 K, Crystal 1 | 203.1
247.48 K, Crystal 1 | 204.5
249.3 K, Crystal 1 | 206
251.12 K, Crystal 1 | 207.5
252.95 K, Crystal 1 | 208.9
254.77 K, Crystal 1 | 210.4
256.59 K, Crystal 1 | 212
258.41 K, Crystal 1 | 213.7
260.23 K, Crystal 1 | 215.2
262.05 K, Crystal 1 | 216.8
263.88 K, Crystal 1 | 218.5
265.7 K, Crystal 1 | 220.1
267.52 K, Crystal 1 | 221.7
269.34 K, Crystal 1 | 223.4
271.17 K, Crystal 1 | 225.1
272.99 K, Crystal 1 | 226.5
274.82 K, Crystal 1 | 227.9
276.64 K, Crystal 1 | 229.6
278.46 K, Crystal 1 | 231.1
278.81 K, Crystal 1 | 231.4
280.29 K, Crystal 1 | 232.6
280.63 K, Crystal 1 | 233
282.11 K, Crystal 1 | 234.2
282.45 K, Crystal 1 | 234.5
283.93 K, Crystal 1 | 235.8
284.26 K, Crystal 1 | 236.1
285.75 K, Crystal 1 | 237.3
286.08 K, Crystal 1 | 237.7
287.57 K, Crystal 1 | 239
287.88 K, Crystal 1 | 239.5
289.39 K, Crystal 1 | 240.8
289.68 K, Crystal 1 | 241.3
290.89 K, Crystal 1 | 242.4
291.08 K, Crystal 1 | 242.5
291.22 K, Crystal 1 | 242.6
291.47 K, Crystal 1 | 242.9
291.8 K, Crystal 1 | 243.3
292.76 K, Crystal 1 | 244.5
293.04 K, Crystal 1 | 244.4
293.06 K, Crystal 1 | 244.7
293.25 K, Crystal 1 | 244.8
293.66 K, Crystal 1 | 245.4
294.53 K, Crystal 1 | 246.2
294.86 K, Crystal 1 | 246.6
294.94 K, Crystal 1 | 246.6
295.02 K, Crystal 1 | 246.7
295.44 K, Crystal 1 | 247.2
296.68 K, Crystal 1 | 248.4
296.79 K, Crystal 1 | 248.6
296.82 K, Crystal 1 | 248.6
298.5 K, Crystal 1 | 250.6
298.55 K, Crystal 1 | 250.5
298.69 K, Crystal 1 | 250.9
312.2 K, Liquid | 370.6
314.15 K, Liquid | 373.6
316.02 K, Liquid | 376.5
317.57 K, Liquid | 379.5
317.87 K, Liquid | 379.7
318.1 K, Liquid | 380.3
318.47 K, Liquid | 380.7
318.82 K, Liquid | 381.4
319.28 K, Liquid | 381.8
319.72 K, Liquid | 382.6
320.06 K, Liquid | 383.3
320.34 K, Liquid | 383.5
320.78 K, Liquid | 384.6
321.01 K, Liquid | 384.9
321.31 K, Liquid | 385.3
321.56 K, Liquid | 385.4
322.18 K, Liquid | 386.6
322.55 K, Liquid | 386.9
323.31 K, Liquid | 388.4
323.4 K, Liquid | 388.2
323.45 K, Liquid | 388.5
323.79 K, Liquid | 388.8
324.01 K, Liquid | 389.3
325.28 K, Liquid | 391.1
325.83 K, Liquid | 392
325.85 K, Liquid | 392.2
327.12 K, Liquid | 393.8
327.67 K, Liquid | 394.8
328.34 K, Liquid | 395.8
328.95 K, Liquid | 396.4
329.49 K, Liquid | 397.5
330.79 K, Liquid | 399.1
330.84 K, Liquid | 399.3
331.3 K, Liquid | 400.1
332.62 K, Liquid | 401.7
333.11 K, Liquid | 402.5
333.33 K, Liquid | 402.6
334.46 K, Liquid | 404.2
335.81 K, Liquid | 406
336.3 K, Liquid | 406.5
338.14 K, Liquid | 408.8
338.29 K, Liquid | 409
339.98 K, Liquid | 411.3
340.77 K, Liquid | 412.1
341.82 K, Liquid | 413.4
343.25 K, Liquid | 415.1
343.66 K, Liquid | 415.8
345.5 K, Liquid | 417.9
345.72 K, Liquid | 418.1
347.35 K, Liquid | 419.8
348.2 K, Liquid | 420.7
349.19 K, Liquid | 421.7
350.66 K, Liquid | 423
351.04 K, Liquid | 423.4
352.88 K, Liquid | 425.1
353.12 K, Liquid | 425.1
354.73 K, Liquid | 426.7
355.58 K, Liquid | 427.2
356.58 K, Liquid | 428.4
358.04 K, Liquid | 429.4
358.43 K, Liquid | 429.7
360.27 K, Liquid | 431.1
360.49 K, Liquid | 431
362.12 K, Liquid | 432.6
362.94 K, Liquid | 432.8
363.97 K, Liquid | 433.8
365.39 K, Liquid | 434.2
365.82 K, Liquid | 435.5
367.67 K, Liquid | 436.2
367.84 K, Liquid | 435.7
